PubChem BioAssay (NCI)
Where “and” joins values, the source holds several entries; their conditions need not be identical. Identical values can stand only once.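 96-well plates; 48 h exposure; 5 concentrations. Endpoints by linear interpolation between flanking doses. Not reached: highest tested concentration assigned. At the GI50, growth is halved. TGI denotes the concentration required for complete inhibition of growth.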

Tests used:
Test in all cases: growth of human tumour cells (NCI), 48 h
RPMI-8226 leukemia = system: RPMI-8226 leukemia
SK-OV-3 ovarian = system: SK-OV-3 ovarian
SW-620 colon = system: SW-620 colon
A549 NSCLC = system: A549 NSCLC
SK-MEL-28 melanoma = system: SK-MEL-28 melanoma
SNB-75 CNS = system: SNB-75 CNS
TK-10 renal = system: TK-10 renal
CAKI-1 renal = system: CAKI-1 renal
CCRF-CEM leukemia = system: CCRF-CEM leukemia
786-0 renal = system: 786-0 renal

SMILES | TGI (RPMI-8226 leukemia) [µM] | TGI (SK-OV-3 ovarian) [µM] | TGI (SW-620 colon) | TGI (A549 NSCLC) | TGI (SK-MEL-28 melanoma) | TGI (SNB-75 CNS) | TGI (TK-10 renal) | TGI (CAKI-1 renal) | TGI (CCRF-CEM leukemia) | TGI (786-0 renal) | GI50 (RPMI-8226 leukemia) [µM] | GI50 (SK-OV-3 ovarian) [µM] | GI50 (SW-620 colon) [µM] | GI50 (A549 NSCLC) [µM] | GI50 (SK-MEL-28 melanoma) [µM] | GI50 (SNB-75 CNS) [µM] | GI50 (TK-10 renal) [µM] | GI50 (CAKI-1 renal) [µM] | GI50 (CCRF-CEM leukemia) [µM] | GI50 (786-0 renal) [µM]
COc1ccc2[nH]c3c(C)c4c(c(C)c3c2c1)CN(C)CC4 | 93.3 | 30 | 15.5 µM | 33.9 µM | 27.5 µM | 36.4 µM | 42.9 µM | 34.1 µM | > 100 µM | 27.8 µM | – | – | – | – | – | – | – | – | – | –
COc1cc(OC)cc(-c2ccc(-c3ccc(C(=N)N)o3)o2)c1 | 5.68 | 28.5 | 4.06 µM | 13.3 µM | 3.67 µM | 13.8 µM | 26.5 µM | 16.1 µM | 7.72 µM | 15.6 µM | 2.25 | 14.9 | 1.88 | 3.78 | 1.82 | 2.2 | 13.4 | 4.33 | 2.72 | 4.15
CCOC(=O)/C=C(/C(=O)OCC)n1cc(Cl)c(=O)n(CC(=O)OCC)c1=O | 5.73 | > 100 | 4.45 µM and 12.9 µM | 18.1 µM and 67 µM | 10.5 µM and 42.2 µM | 13 µM and 33.6 µM | 8.29 µM and 23.8 µM | 7.64 µM and 5.5 µM | 1.13 µM and 5.65 µM | 2.48 µM and 7.5 µM | – | 41.4 | 3.04 | 23.4 | 20.3 | 16.6 | 11.5 | – | 2.12 | 2.78
C=C(CN1CCc2ccccc2C1)c1ccc(C(=O)Nc2cnccn2)cc1 | 10.3 | 84.5 | > 100 µM | > 100 µM | > 100 µM | 61.2 µM | > 100 µM | > 100 µM | > 100 µM | > 100 µM | 3.35 | 24.3 | 42.3 | 31 | 25.4 | 16.7 | 86.3 | 7.77 | 5.42 | 25.4
O=c1oc2ccc(F)cc2c(=O)n1-c1ccc(F)cc1F | 7.09 | 4.6 | 80.6 µM | > 100 µM | 11.7 µM | 5.43 µM | 36.9 µM | 6.4 µM | 67.4 µM | 11.4 µM | 2.22 | 1.72 | 3.33 | 3.35 | 2.79 | 1.58 | 5.07 | 1.98 | 3.95 | 3.13
COc1cnc2cc(C(=O)O)c3c([N+](=O)[O-])cccc3c2c1 | > 100 | > 100 | > 100 µM | > 100 µM | > 100 µM | > 100 µM | > 100 µM | > 100 µM | > 100 µM | > 100 µM | – | – | – | – | – | – | – | – | – | –
COc1ccc(CNc2cc(OC)c(OC)c(OC)c2)cc1 | 83.1 | > 90.5 | > 100 µM | > 100 µM | > 100 µM | 97.1 µM | > 100 µM | > 100 µM | > 100 µM | > 100 µM | – | – | – | – | – | – | – | – | – | –
Cc1ccc(S(=O)(=O)N(CCOc2ccc(/C(N)=N/Cl)cc2)CCOc2ccc(/C(N)=N\Cl)cc2)cc1 | > 100 | > 100 | > 100 µM | > 100 µM | > 100 µM | 20.1 µM | > 100 µM | > 100 µM | > 100 µM | > 100 µM | 8.99 | 83.3 | 26.9 | 4.88 | 25.7 | 4.92 | 40 | 76.6 | 11.6 | 34.6
O=C(CN1CCOCC1)Nc1ccc(Cn2nnc3c2C(=O)c2nnn(Cc4ccc(NC(=O)CN5CCOCC5)cc4)c2C3=O)cc1 | 2.24 | 8.28 | 1.75 µM | 4.97 µM | 2.62 µM | 3.04 µM | 24.4 µM | > 100 µM | 1.6 µM | 5.27 µM | 0.365 | 2.68 | 0.366 | 1.99 | 0.696 | 1.66 | 3.25 | > 45 | 0.233 | 1.94
CCNCCNc1cc(-c2ccc(C(=O)OC)cc2)c(C#N)c2nc3ccccc3n12 | 5.3 | 4.8 | 2.67 µM | 5.01 µM | 3.45 µM | 3.17 µM | 4.44 µM | > 100 µM | 3.55 µM | 3.46 µM | 1.99 | 2 | 0.488 | 1.46 | 1.72 | 1.53 | 1.91 | 2.92 | 0.505 | 1.56
CN(C)CCNc1cc(-c2ccccc2)nc2ccccc12 | 21.8 | 39 | 21.5 µM | 43.5 µM | 28.5 µM | 23.4 µM | 38.8 µM | 40.9 µM | 37.3 µM | 23.8 µM | 4.09 | 9.24 | 3.94 | 4.83 | 13.4 | 9.57 | 6.94 | 6.56 | 4.43 | 6.87
O=C1/C(=C/c2ccc(Br)cc2)C=C(c2ccccc2)N1CCc1ccccc1 | 86.4 | 5 | > 100 µM | 11.9 µM | 17 µM | 3.83 µM | 6.06 µM | 7.6 µM | > 100 µM | 2.8 µM | 9.44 | 1.55 | 5.34 | 1.37 | 2.75 | 0.66 | 1.82 | 1.23 | 7.76 | 0.647
CC1(Cl)C(=O)NC(=O)N(C2CC(N=[N+]=[N-])C(CO)O2)C1N=[N+]=[N-] (stereo not drawn) | > 100 | > 100 | > 100 µM | > 100 µM | > 100 µM | > 100 µM | > 100 µM | > 100 µM | > 100 µM | > 100 µM | – | – | – | – | – | – | – | – | – | –
CC1CCC2(C(=O)O)CCC3(C)C(=CCC4C5(C)CC(O)C(O)C(C)(CO)C5C(O)CC43C)C2C1C (stereo not drawn) | 80.4 | > 100 | > 100 µM | > 100 µM | 69 µM | 79.7 µM | > 100 µM | > 100 µM | 53.3 µM | 20 µM | – | – | – | – | – | – | – | – | – | –
COC(=O)C1=C(C(=O)OC)C2C=CC1C1C(Cl)=C(Cl)C21 (stereo not drawn) | > 100 | > 100 | > 100 µM | > 100 µM | > 100 µM | > 100 µM | > 100 µM | > 100 µM | > 100 µM | > 100 µM | – | – | – | – | – | – | – | – | – | –
